Reference: patent US12391643B2, “Substituted amino-thiol and amino-disulfide compounds, and uses thereof” (The Regents of the University of California, priority 2019, dated 2025)
“Also recorded” adds a separate entry of the source. Where a name gives a salt, the structure may show the parent alone. Blank lines part the entries; values can stand above or below the compound they belong to.

Assays:
Pooled human hepatocytes = test: Hepatocyte elimination (in vitro metabolic stability, percent parent remaining by LC/MS/MS); format: in vitro ADME; details: for Rate of hepatocyte elimination / stability, comparison in words: compared with other forms
Source text: In vitro experiments with isotopically enriched cystamine and cysteamine in hepatocytes.
The assessment of in vitro metabolic stability provides a means to measure the susceptibility of a test compound to biotransformation by the liver. While liver microsomes primarily assess cytochrome P450 system-mediated metabolism (phase I metabolism), hepatocytes represent a complete, undisrupted metabolic system, including cofactors, and thus assess both phase I and phase II metabolism. In all cases, the metabolic stability of test compounds was determined by monitoring, via LC/MS/MS, the percent parent compound remaining versus time of incubation in human hepatocytes.
Pooled human hepatocytes (catalog number HMCS10, ThermoFischer Scientific) were thawed according to the manufacturers instructions. Thawed hepatocytes were washed by centrifugation and replated in Williams' Medium E supplemented with Heptocyte Plating Supplement Pack, Serum-containing.
Cells were diluted to 1,000,000 per ml in maintenance media (Williams' E Media supplemented with Hepatocyte Maintenance Supplement Pack, Serum-free). 500 μl of cell suspension was added to each well of a microtiter plate containing 500 μl of the deuterated test agent and placed on an orbital shaker at 120 rpm at 37 C. At the appropriate time point 50 μl aliquots were removed from the well and added to 50 μl of ice cold ethyl acetate and vortexed for 5 min and froze until chromatography analysis.

cystinotic fibroblasts [1] = test: Cystine depletion during constant drug exposure in cystinotic fibroblasts; format: cell-based, human; details: for Reduction of intracellular cystine levels: cystamine 50, 100, 200 μM, cysteamine 200 μM (FIG. 1); for Rate of intracellular cystine depletion, comparison in words: 100 uM constant exposure, 0-5 h, vs cystamine
Experimental: (§1) In vitro experiments with isotopically enriched cystamine in cystinotic fibroblasts. Fibroblasts from a de-identified cystinotic patient were split 3× from 2 plates into 36 plates. Three different drugs were used for the experiments: cystamine (non-labeled), d2-cystamine, and d4-cystamine. There were two time series for each drug. The first was with constant drug incubation and included: 0, 10 min, 30 min, 1 h, 3 h, and 5 h. The other series included a washout after 3 h drug incubation, using fresh media following a PBS wash, and included the timepoints: 0, 30 min, 1 h, 3 h, 5 h, and 17 h. A direct quench and extraction technique were used for harvesting all cells to minimize further oxidation and metabolism. This included 2× washes with PBS that included 5 mM N-ethylmaleimide for trapping free thiol groups, and then scraping the plates with an acidified organic solvent extraction solution containing both d4-cystine and d4-cysteamine (plus d-8 cystamine) as internal standards. All samples were run on an API 4500 triple quadrupole LC-MS/MS, with selective reaction monitoring (SRM/MRM) for the following compounds of interest: cystine, NEM-cysteamine, NEM-cysteine, cystamine, and 2-(methylthio)ethylamine. All data fit well to single exponential curves (either decay or association), except where mentioned.
Following incubation, cells were washed 2× in PBS containing N-ethylmaleimide.
(§2) Fibroblasts from a de-identified cystinotic patient were split 3× from 2 plates into 18 plates. Two different drugs were used for the experiments: D4n-cystamine, and D8-cystamine. There were two time series for each drug. The first was with constant drug incubation and included: 0, 15 min, 30 min, 1 hr, and 3 hr. The other series included a washout after 3 hours of drug incubation, using fresh media following a PBS wash, and included the time-points: 0, 1 hr, 3 hr, and 16 hr. A direct quench and extraction technique was used for harvesting all cells to minimize further oxidation and metabolism. […] All samples were run on an API 4500 triple quadruple LC-MS/MS, with selective reaction monitoring (SRM/MRM) for the following compounds of interest: cystine, NEM-cysteamine, NEM-cysteine, and cystamine. All data fit well to single exponential curves (either decay or association), except where mentioned.

cystinotic fibroblasts [2] = test: Cystine re-accumulation after washout in cystinotic fibroblasts; format: cell-based, human; details: for Cystine reaccumulation after washout, D4n vs D8: 50 μM for 3 hours, then media 1 h, 3 h, 16 h
Experimental: as §1
Cystine measurement after washout: Fibroblast cultures were exposed to 100 uM cystamine/d2-cystamine/d4-cystamine for 3 h. Following incubation, cells were washed with PBS, and then incubated with regular media (containing FBS) for the following timepoints: 0 min, 30 min, 1 h, 3 h, 5 h, and 17 h. Cells were harvested identically as described previously.
as §2
Fibroblast cultures were exposed to 50 μM cystamine (D8 or D4n) for 3 hours. Following incubation, cells were washed with PBS and then incubated with regular mediate containing FBS for 1 h, 3 h, and 16 h. Cells were harvested as above. […] Cystine reaccumulation between D4n-cystamine and D8-cystamine are very similar, indicating similar levels of drug remaining during the washout timepoints (FIG. 15).

cystinotic fibroblasts [3] = test: Intracellular NEM-cysteamine, NEM-cysteine, cystamine and mixed disulfide levels in cystinotic fibroblasts; format: cell-based, human; details: for NEM-cysteamine level during constant incubation: 100 uM drug, early timepoints, normalized against d4-cystine; for Intracellular cystamine level during constant drug incubation: FIG. 10; for NEM-cysteine level after 3 h incubation and washout: washout period
Experimental: as §1
NEM-cysteamine and NEM-cysteine during constant incubation. Fibroblast cultures were exposed to drug (either cystamine, d2-cystamine, or d4-cystamine) and harvested as described on page 2 for the cystine depletion curve. NEM-cysteamine (or NEM-d1-cysteamine or NEM-d2-cysteamine) was measured for each respective plate and normalized against the signal for d4-cystine.
NEM-cysteamine during washout. Fibroblast cultures were exposed to drug (either cystamine, d2-cystamine, or d4-cystamine) for 3 h were then exposed to media for various timepoints and harvested as previously described.
NEM-cysteine during washout. Fibroblast cultures were exposed to drug (either cystamine, d2-cystamine, or d4-cystamine) for 3 h were then exposed to media for various timepoints and harvested as previously described.
Cystamine during constant drug incubation. Fibroblast cultures were exposed to drug (either cystamine, d2-cystamine, or d4-cystamine) for various timepoints following harvesting as described earlier. Cystamine could be measured in the non-labeled cystamine incubation as well as the d4-cystamine incubation. d2-cystamine could not be accurately measured due to a strong background interference signal corresponding to that mass. No cystamine could be measured in the washout experiments.

cystinotic fibroblasts [4] = test: as above; format: cell-based, human; details: cystamine 50, 100, 200 μM compared with cysteamine 200 μM (FIG. 2)
[5] = tested on: intracellular cystine (circulating white blood cells); details: taken regularly; measured in circulating white blood cells; cited from earlier work
[6] = tested on: C57BL/6 male mice on CDAHFD diet; test: In vivo NASH model, prevention phase (drug in drinking water, 8 weeks); details: about 200 mg/kg/day in drinking water, n=8 per group
Experimental: (§3) In vivo NASH Models. NASH models from normal C57BL/6 male mice on CDAHFD diet (choline deficient, L-amino acid defined, high fat diet with restricted amount of methionine) were used. Two deuterated cystamine molecules were tested:
(§4) Two phase study was performed: (1) A prevention and (2) a treatment phase. 48 Mice were separated into nine groups of mice as described below. Histology at end of each study was performed looking for specific features of NASH (steatohepatitis, ballooning, fibrosis). The primary endpoint was plasma ALT measurement. Gene expression studies for fibrosis, inflammation were also performed.
Drug (D2 or D4) was administered in drinking water at a concentration to deliver animals about 200 mg/kg/day of drug. Daily weight. Volume of fluid drunk/day was also measured.
Prevention Phase. Group 1: Control mice on CDAHFD for 8 weeks. Blood drawn at 0, 4, and 8 weeks. Group 2: Mice on CDAHFD plus D2 at 200 mg/kg/day for 8 weeks. Blood drawn at 0, 4, and 8 weeks. Group 3: Mice on CDAHFD plus D4 at 200 mg/kg/day for 8 weeks. Blood drawn at 0, 4, and 8 weeks. Group 4: Control mice (n=4) continue on CDAHFD for 2 weeks. Blood at baseline and at 2 weeks. Liver histology at 2 weeks. Group 5: Mice (n=4) on CDAHFD for 2 weeks plus D2 at 200 mg/kg/day administered via daily gavage. Blood at 0 and 2 weeks and histology at 2 weeks. […]

[7] = tested on: C57BL/6 male mice on CDAHFD diet; test: In vivo NASH model, treatment phase (8 weeks CDAHFD, then 2 weeks daily gavage); details: for Fatty deposits / fat globules in liver, H&E staining: 200 mg/kg/day
Experimental: Liver Inflammatory Cells. CD11b stains macrophages and microglia. CD11b staining of liver tissue was taken after 10 weeks of CDAHFD in three groups of mice. […] At 8 weeks, treatment group 2 (“C2”) mice started gavage feeding with D2-Cystamine at 200 mg/kg/day once daily gavage, and treatment group 3 (“C3”) mice received D4-Cystamine at 200 mg/kg/day by once daily gavage.
as §3, §4
Prevention Phase. Group 1: Control mice on CDAHFD for 8 weeks. Blood drawn at 0, 4, and 8 weeks. Group 2: Mice on CDAHFD plus D2 at 200 mg/kg/day for 8 weeks. Blood drawn at 0, 4, and 8 weeks. Group 3: Mice on CDAHFD plus D4 at 200 mg/kg/day for 8 weeks. Blood drawn at 0, 4, and 8 weeks. Group 4: Control mice (n=4) continue on CDAHFD for 2 weeks. Blood at baseline and at 2 weeks. Liver histology at 2 weeks. Group 5: Mice (n=4) on CDAHFD for 2 weeks plus D2 at 200 mg/kg/day administered via daily gavage. Blood at 0 and 2 weeks and histology at 2 weeks. Group 6: Mice (n=4) on CDAHFD for 2 weeks plus D4 at 200 mg/kg/day administered via daily gavage. Blood at 0 and 2 weeks and histology at 2 weeks.
Treatment Study Results. Groups 4, 5 and 6 mice received 8 weeks of CDAHDF diet before beginning treatment with deuterated compounds of the disclosure. During the treatment phase the mice continued to receive CDAHDF diet. Four mice were set in each group: control (C1) not receiving any drug; treatment (C2) receiving 200 mg/kg of cystamine D2 by once daily gavage; and treatment (C3) receiving 200 mg/kg cystamine D4 by once daily gavage.

steatosis = details: 400-1000 IU/day for 4-10 months, cited from earlier work

Compound: 2-aminoethane-1-d-1-thiol hydrochloride [D-cysteamine]
- Rate of hepatocyte elimination / stability, comparison in words (Pooled human hepatocytes): slower rate than cysteamine bitartrate

- Hepatocyte elimination, % remaining (Pooled human hepatocytes; TIME 0 min): 100%
- Hepatocyte elimination, % remaining (Pooled human hepatocytes; TIME 15 min): 18.5%
- Hepatocyte elimination, % remaining (Pooled human hepatocytes; TIME 30 min): 6.5%
Compound: NCCSSCCN [Cystamine]
- Reduction of intracellular cystine levels (cystinotic fibroblasts [1]): effective in reducing intracellular cystine levels in a dose-response fashion
- Cystine level 17 h after washout versus plates not exposed to cystamine (cystinotic fibroblasts [2]; 3 h incubation with 100 μM cystamine, then cystamine-free media): identical to the 17 h cystine measurement
- NEM-cysteamine level during constant incubation (cystinotic fibroblasts [3]): faster/higher; also recorded: Higher levels of cysteamine
- NEM-cysteamine level during constant incubation (cystinotic fibroblasts [3]; listed as non-labeled cystamine): highest
- Intracellular cystamine level during constant drug incubation (cystinotic fibroblasts [3]): deplete rapidly
- Intracellular cystamine level during constant drug incubation (cystinotic fibroblasts [3]; listed as cystamine): depletes rapidly
- NEM-cysteine level after 3 h incubation and washout (cystinotic fibroblasts [3]): rise and increase
- Conversion of intracellular cystine to mixed disulfide (MD) of cysteine-cysteamine (cystinotic fibroblasts [4]): delayed

Compound: NCCS.O=C(O)C(O)C(O)C(=O)O (stereo not shown) [Cysteamine Bitartrate, reference compound]
- Hepatocyte elimination, % remaining (Pooled human hepatocytes; TIME 0 min): 100%
- Hepatocyte elimination, % remaining (Pooled human hepatocytes; TIME 15 min): 15.4%
- Hepatocyte elimination, % remaining (Pooled human hepatocytes; TIME 30 min): 2.7%
- Hepatocyte elimination, % remaining (Pooled human hepatocytes; TIME 60 min): 1.2%

Compound: NCCS [Cysteamine, reference compound]
- Reduction of intracellular cystine levels (cystinotic fibroblasts [1]): effective and more rapid in its response time
- Depletion of intracellular cystine [5]: up to 90%

- Rate of hepatocyte elimination / stability, comparison in words (Pooled human hepatocytes): slower than non-deuterated cystamine
Compound: [2H]C(CN)SSC([2H])CN (stereo not drawn) [D2-Cystamine, 2,2′-disulfanediylbis(ethan-2-d-1-amine)dihydrochloride]
- Rate of intracellular cystine depletion, comparison in words (cystinotic fibroblasts [1]; listed as D2-cystamine): slightly slower kinetics
- Rate of intracellular cystine depletion, comparison in words (cystinotic fibroblasts [1]; listed as d2-Cystamine): slightly slower kinetics
- Rate of intracellular cystine depletion, comparison in words (cystinotic fibroblasts [1]; listed as d2-cystamine): slower
- Cystine re-accumulation after washout, comparison in words (cystinotic fibroblasts [2]; 100 uM for 3 h, then drug-free media up to 17 h, vs cystamine): slightly faster
- NEM-cysteine level after 3 h incubation and washout (cystinotic fibroblasts [3]): rise and increase
- NEM-cysteine level after 3 h incubation and washout (cystinotic fibroblasts [3]; listed as D2): higher cysteine levels
- ALT levels at 8 weeks versus control group [6]: statistically significant difference
- ALT versus untreated control group ([7]; 200 mg/kg once daily gavage, 2 weeks): significantly lower
- Hepatic fibrosis, Sirius Red staining of liver sections ([7]; 200 mg/kg once daily gavage, 2 weeks, listed as D2): significant reduction in the amount of positive liver staining
- Hepatic fibrosis, Sirius Red staining of liver sections ([7]; 200 mg/kg once daily gavage, 2 weeks, listed as cystamine D2): very significant reduction in hepatic fibrosis
- Number of CD11b positive cells in liver tissue versus control group ([7]; 200 mg/kg/day once daily gavage, 2 weeks): statistically significant reduction
- Fatty deposits / fat globules in liver, H&E staining ([7]; 2 weeks): reduction in fatty globules
- Fatty deposits / fat globules in liver, H&E staining ([7]; 2 weeks, listed as D2): reduced fatty deposits compared to control
- TIMP expression, qPCR, versus control ([7]; liver, 2 weeks of treatment): significant reduction

Compound: Cl.[2H]C([2H])(S)CN [D2-cysteamine, 2-mercaptoethan-2,2-d2-1-aminium chloride]
- Rate of hepatocyte elimination / stability, comparison in words (Pooled human hepatocytes): slower rate than cysteamine bitartrate

Compound: [2H]C([2H])(N)CSSCC([2H])([2H])N [D4n-cystamine, 2,2′-disulfanediylbis(ethan-1,1-d2-1-aminium) chloride]
- Cystine reaccumulation after washout, D4n vs D8 (cystinotic fibroblasts [2]): very similar

Compound: [2H]C([2H])(N)C([2H])([2H])SSC([2H])([2H])C([2H])([2H])N [D8-cystamine]
- Cystine reaccumulation after washout, D4n vs D8 (cystinotic fibroblasts [2]): very similar

- Hepatocyte elimination, % remaining (Pooled human hepatocytes; TIME 0 min): 100%
- Hepatocyte elimination, % remaining (Pooled human hepatocytes; TIME 15 min): 22.6%
- Hepatocyte elimination, % remaining (Pooled human hepatocytes; TIME 30 min): 24.3%
- Hepatocyte elimination, % remaining (Pooled human hepatocytes; TIME 60 min): 0%
Compound: [2H]C(CN)SSC([2H])CN (stereo not shown) [drawing 24]

- Hepatocyte elimination, % remaining (Pooled human hepatocytes; TIME 0 min): 100%
- Hepatocyte elimination, % remaining (Pooled human hepatocytes; TIME 15 min): 131.4%
- Hepatocyte elimination, % remaining (Pooled human hepatocytes; TIME 30 min): 35.9%
- Hepatocyte elimination, % remaining (Pooled human hepatocytes; TIME 60 min): 14.5%
Compound: [2H]C([2H])(CN)SSC([2H])([2H])CN [drawing 25]

Compound: vitamin E
- Mean AST level after treatment (steatosis; decreased from 104±61 IU/L): 33±11 IU/L
- Mean ALT level after treatment (steatosis; decreased from 175±106 IU/L): 40±26 IU/L
